Data reported in patent US10519177B2, “Heterocyclic compounds and uses thereof” (Plexxikon Inc., priority 2013, dated 2019).
Where two headings read alike, the source gives them in different places.

Columns and labels:
MV-4-11 cells = assay: Oncology cell growth assay MV-4-11 (CellTiter Glo); format: cell-based; details: Homo sapiens, MV4-11, 72 h, read-out: Cell activity (IC50 μM) MV-4-11 3d-Growth
Outline: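 Growth read by CellTiter Glo luminescence after 72 h compound treatment of MLL-AF4-bearing MV-4-11 cells (3000/well). Titration: 8 points, 1:3 steps, maximum 10 μM, 0.2% DMSO final. Data normalized to DMSO wells, four-parameter fit gives pIC50.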

bromodomain = assay: at least one of the bromodomain cell assays of Example 57; format: cell-based; details: at least one of the bromodomain cell assays described in Example 57; read-out: IC50 in at least one of the bromodomain cell assays
BRD4-BD12 (1-477) = BRD4-BD12 (1-477) (Homo sapiens (Human), UniProt O60885); assay: Alphascreen binding assay BRD4-BD12; details: BRD4(1 2) H4; read-out: Biochemical activity (IC50 μM) BRD4(1 2) H4
Outline: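 In this competition format, compounds displace a biotinylated tetra-acetyl H4 peptide from E. coli-expressed human BRD4 bromodomain constructs captured on nickel chelate beads. The reaction runs at pH 7.5 with 2 mM DTT and detergent for 1 h at room temperature before a 30 min bead step.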

| SMILES | IC50 (MV-4-11 cells) | IC50 (bromodomain) | IC50 (BRD4-BD12 (1-477)) | IC50 (MV-4-11 cells; MV-4-11, 3d growth) |
| --- | --- | --- | --- | --- |
| Cc1noc(C)c1-c1cnc2c(-c3cnn(C(F)F)c3)cn([C@@H](C)c3ccc(F)cc3)c2c1 [P-0355, 4-[3-[1-(difluoromethyl)pyrazol-4-yl]-1-[(1S)-1-(4-fluorophenyl)ethyl]pyrrolo[3,2-b]pyridin-6-yl]-3,5-dimethyl-isoxazole] | < 1 µM | < 10000 nM | < 1 µM | – |
| Cc1noc(C)c1-c1cnc2c(-c3cnn(CC(=O)O)c3)cn(CC3(F)CCC(F)(F)CC3)c2c1 [P-0386, 2-[4-[6-(3,5-dimethylisoxazol-4-yl)-1-[(1,4,4-trifluorocyclohexyl)methyl]pyrrolo[3,2-b]pyridin-3-yl]pyrazol-1-yl]acetic acid] | 10 to 200 µM | < 10000 nM | < 1 µM | – |
| Cc1noc(C)c1-c1cnc2c(-c3ccc(C#N)cc3)cn(CC3(F)CCCCC3)c2c1 [P-0457, 4-[6-(3,5-dimethylisoxazol-4-yl)-1-[(1-fluorocyclohexyl)methyl]pyrrolo[3,2-b]pyridin-3-yl]benzonitrile] | – | < 10000 nM | < 1 µM | < 1 µM |
| CCOC(=O)c1ccc(-c2cn(CC3CCC(F)(F)CC3)c3cc(-c4c(C)noc4C)cnc23)cc1Cl [P-0534, ethyl 2-chloro-4-[1-[(4,4-difluorocyclohexyl)methyl]-6-(3,5-dimethylisoxazol-4-yl)pyrrolo[3,2-b]pyridin-3-yl]benzoate] | – | < 10000 nM | < 1 µM | 1 to 10 µM |
| Cc1noc(C)c1-c1cnc2c(-c3cccc(S(=O)(=O)NC4CC4)c3)cn(CC3(F)CCCCC3)c2c1 [P-0490, N-cyclopropyl-3-[6-(3,5-dimethylisoxazol-4-yl)-1-[(1-fluorocyclohexyl)methyl]pyrrolo[3,2-b]pyridin-3-yl]benzenesulfonamide] | – | < 10000 nM | < 1 µM | < 1 µM |
| CCOC(=O)c1ccc(-c2cn(CC3CCC(F)(F)CC3)c3cc(-c4c(C)noc4C)cnc23)cc1 [P-0537, ethyl 4-[1-[(4,4-difluorocyclohexyl)methyl]-6-(3,5-dimethylisoxazol-4-yl)pyrrolo[3,2-b]pyridin-3-yl]benzoate] | – | < 10000 nM | < 1 µM | < 1 µM |
| Cc1noc(C)c1-c1cnc2c(-c3ccc(C=O)cc3)cn(CC3CCC(F)(F)CC3)c2c1 [P-0600, 4-[1-[(4,4-difluorocyclohexyl)methyl]-6-(3,5-dimethylisoxazol-4-yl)pyrrolo[3,2-b]pyridin-3-yl]benzaldehyde] | – | < 10000 nM | < 1 µM | < 1 µM |
| COC(=O)Nc1ccc(-c2cn(CC3(F)CCCCC3)c3cc(-c4c(C)noc4C)cnc23)cc1 [P-0493, methyl N-[4-[6-(3,5-dimethylisoxazol-4-yl)-1-[(1-fluorocyclohexyl)methyl]pyrrolo[3,2-b]pyridin-3-yl]phenyl]carbamate] | – | < 10000 nM | < 1 µM | < 1 µM |
| CNC(=O)c1ccc(-c2cn(CC3(F)CCCCC3)c3cc(-c4c(C)noc4C)cnc23)cc1 [P-0465, 4-[6-(3,5-dimethylisoxazol-4-yl)-1-[(1-fluorocyclohexyl)methyl]pyrrolo[3,2-b]pyridin-3-yl]-N-methyl-benzamide] | – | < 10000 nM | < 1 µM | < 1 µM |
| Cc1noc(C)c1-c1cnc2c(-c3cnc(N)cn3)cn(CC3CCC(F)(F)CC3)c2c1 [P-0399, 5-[1-[(4,4-difluorocyclohexyl)methyl]-6-(3,5-dimethylisoxazol-4-yl)pyrrolo[3,2-b]pyridin-3-yl]pyrazin-2-amine] | < 1 µM | < 10000 nM | < 1 µM | – |
| Cc1noc(C)c1-c1cnc2c(I)cn(CC3CCCCCCC3)c2c1 [P-0577, 4-[1-(cyclooctylmethyl)-3-iodo-pyrrolo[3,2-b]pyridin-6-yl]-3,5-dimethyl-isoxazole] | – | < 10000 nM | < 1 µM | < 1 µM |
| Cc1ccc(-c2cn(CC3(F)CCCCC3)c3cc(-c4c(C)noc4C)cnc23)cc1C(=O)O [P-0525, 5-[6-(3,5-dimethylisoxazol-4-yl)-1-[(1-fluorocyclohexyl)methyl]pyrrolo[3,2-b]pyridin-3-yl]-2-methyl-benzoic acid] | – | < 10000 nM | < 1 µM | < 1 µM |
| COC(=O)Cc1ccc(-c2cn(CC3CCCCC3)c3cc(-c4c(C)noc4C)cnc23)cc1 [P-0589, methyl 2-[4-[1-(cyclohexylmethyl)-6-(3,5-dimethylisoxazol-4-yl)pyrrolo[3,2-b]pyridin-3-yl]phenyl]acetate] | – | < 10000 nM | < 1 µM | < 1 µM |
| Cc1noc(C)c1-c1cnc2c(-c3ccc(C#N)cc3)cn(C(c3ccccn3)c3ccccn3)c2c1 [P-0592, 4-[1-[bis(2-pyridyl)methyl]-6-(3,5-dimethylisoxazol-4-yl)pyrrolo[3,2-b]pyridin-3-yl]benzonitrile] | – | < 10000 nM | < 1 µM | < 1 µM |
| Cc1noc(C)c1-c1cnc2c(I)cn(CC3CCC4(CC3)CC4)c2c1 [P-0580, 4-[3-iodo-1-(spiro[2.5]octan-6-ylmethyl)pyrrolo[3,2-b]pyridin-6-yl]-3,5-dimethyl-isoxazole] | – | < 10000 nM | < 1 µM | < 1 µM |
| Cc1noc(C)c1-c1cnc2c(I)cn(Cc3cccnn3)c2c1 [P-0528, 4-[3-iodo-1-(pyridazin-3-ylmethyl)pyrrolo[3,2-b]pyridin-6-yl]-3,5-dimethyl-isoxazole] | – | < 10000 nM | < 1 µM | < 1 µM |
| Cc1noc(C)c1-c1cnc2c(-c3ccc(CC(=O)O)cc3)cn(CC3(C)CCOCC3)c2c1 [P-0776, 2-[4-[6-(3,5-dimethylisoxazol-4-yl)-1-[(4-methyltetrahydrpyran-4-yl)methyl]pyrrolo[3,2-b]pyridin-3-yl]phenyl]acetic acid] | – | < 10000 nM | < 1 µM | 1 to 10 µM |
| Cc1noc(C)c1-c1cnc2c(-c3ccc(C(F)(F)C(=O)O)cc3)cn([C@@H](C)c3ccccn3)c2c1 [P-0566, 2,2-difluoro-2-(4-(6-(3,5-dimethylisoxazol-4-yl)-1-((S)-1-(pyridin-2-yl)ethyl)-1H-pyrrolo[3,2-b]pyridin-3-yl)phenyl)acetic acid] | – | < 10000 nM | < 1 µM | 1 to 10 µM |
| Cc1noc(C)c1-c1cnc2c(-c3ccc(O)c(Cl)c3)cn(CC3(F)CCCCC3)c2c1 [P-0524] | – | < 10000 nM | < 1 µM | < 1 µM |
| COc1ccc(-c2cn(CC3CCC(F)(F)CC3)c3cc(-c4c(C)noc4C)cnc23)cn1 [P-0390, 4-[1-[(4,4-difluorocyclohexyl)methyl]-3-(6-methoxy-3-pyridyl)pyrrolo[3,2-b]pyridin-6-yl]-3,5-dimethyl-isoxazole] | < 1 µM | < 10000 nM | < 1 µM | – |
| Cn1cc(-c2cnc3c(-c4cnn(CC(F)(F)F)c4)cn(CC4CCC(F)(F)CC4)c3c2)ccc1=O [P-0436, 5-[1-[(4,4-difluorocyclohexyl)methyl]-3-[1-(2,2,2-trifluoroethyl)pyrazol-4-yl]pyrrolo[3,2-b]pyridin-6-yl]-1-methyl-pyridin-2-one] | – | < 10000 nM | < 1 µM | < 1 µM |
| CCOC(=O)c1ccc(-n2cc(CC3CCC(F)(F)CC3)c3cc(-c4c(C)noc4C)cnc32)nc1 [P-0429, ethyl 6-[3-[(4,4-difluorocyclohexyl)methyl]-5-(3,5-dimethylisoxazol-4-yl)pyrrolo[2,3-b]pyridin-1-yl]pyridine-3-carboxylate] | – | < 10000 nM | < 1 µM | 1 to 10 µM |
| [2H]C([2H])(C1CC(F)(F)C1)n1cc(-c2cn[nH]c2)c2ncc(-c3c(C)noc3C)cc21 [P-0255, 4-[1-[dideuterio-(3,3-difluorocyclobutyl)methyl]-3-(1H-pyrazol-4-yl)pyrrolo[3,2-b]pyridin-6-yl]-3,5-dimethyl-isoxazole] | < 1 µM | < 10000 nM | < 1 µM | – |
| Cc1noc(C)c1-c1cnc2c(-c3ccc(C(=O)O)cc3)cn(Cc3ccccc3)c2c1 [P-0375, 4-[1-benzyl-6-(3,5-dimethylisoxazol-4-yl)pyrrolo[3,2-b]pyridin-3-yl]benzoic acid] | < 1 µM | < 10000 nM | < 1 µM | – |
| Cc1nnn(C)c1-c1cnc2c(-c3ccc(C(=O)O)cc3)cn(CC3(F)CCC(F)(F)CC3)c2c1 [P-0373, 4-[6-(3,5-dimethyltriazol-4-yl)-1-[(1,4,4-trifluorocyclohexyl)methyl]pyrrolo[3,2-b]pyridin-3-yl]benzoic acid] | < 1 µM | < 10000 nM | < 1 µM | – |
| Cn1cc(-c2cn(CC3CCC(F)(F)CC3)c3cc(-c4ccc(O)nc4)cnc23)cn1 [P-0437, 5-[1-[(4,4-difluorocyclohexyl)methyl]-3-(1-methylpyrazol-4-yl)pyrrolo[3,2-b]pyridin-6-yl]pyridin-2-ol] | – | < 10000 nM | < 1 µM | < 1 µM |
| Cc1noc(C)c1-c1cnc2c(-c3cnco3)cn(CC3CCC(F)(F)CC3)c2c1 [P-0400, 4-[1-[(4,4-difluorocyclohexyl)methyl]-3-oxazol-5-yl-pyrrolo[3,2-b]pyridin-6-yl]-3,5-dimethyl-isoxazole] | < 1 µM | < 10000 nM | < 1 µM | – |
| Cc1noc(C)c1-c1cnc2[nH]cc(C(O)(c3ccccn3)c3ccccn3)c2c1 [P-0545, [5-(3,5-dimethylisoxazol-4-yl)-1H-pyrrolo[2,3-b]pyridin-3-yl]-bis(2-pyridyl)methanol] | – | < 10000 nM | < 1 µM | < 1 µM |
